The target in this experiment is T1, glucocerebrosidase (GC; Cerezyme, recombinant WT GC) (Homo sapiens, UniProt P04062).
T1 sequence (P04062 40-536): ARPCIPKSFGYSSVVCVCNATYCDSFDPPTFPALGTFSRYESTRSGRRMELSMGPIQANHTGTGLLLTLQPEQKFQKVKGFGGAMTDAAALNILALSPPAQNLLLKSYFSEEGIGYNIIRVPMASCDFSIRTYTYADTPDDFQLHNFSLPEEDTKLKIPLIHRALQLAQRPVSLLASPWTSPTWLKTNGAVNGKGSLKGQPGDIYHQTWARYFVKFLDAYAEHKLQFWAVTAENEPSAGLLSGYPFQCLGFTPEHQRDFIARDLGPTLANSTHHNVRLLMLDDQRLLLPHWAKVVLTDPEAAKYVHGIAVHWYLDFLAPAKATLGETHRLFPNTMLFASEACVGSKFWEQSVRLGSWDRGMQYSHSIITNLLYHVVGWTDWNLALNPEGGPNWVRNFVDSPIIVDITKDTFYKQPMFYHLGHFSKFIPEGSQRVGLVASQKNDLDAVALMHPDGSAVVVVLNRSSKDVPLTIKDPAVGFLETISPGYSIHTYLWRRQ
Briefly: in vitro enzyme inhibition assay with recombinant GC. The experiment is classed as biochemical.

As for `O=C1CN(/N=C/c2ccc(-c3ccc([N+](=O)[O-])cc3)o2)C(O)=N1` [compound 3, dantrolene], the concentration for half-maximal inhibition (IC50) is roughly 90 µM.

For the origin of these results see article PMC2873071 (Nature chemical biology, 2010).
